Experimental findings from the NIST ThermoML archive (doi:10.1016/j.tca.2004.08.013) are described below.

Numbers after ± are expanded uncertainties.

The conditions of series [1]: 101.33 kPa, Liquid.
A short description of series [2]: xn = mol fraction of the nth substance listed. To be noted: 303.15 K, 101.3 kPa, Liquid.

What is called mass density is mass per unit of volume. As a reminder, the viscosity is the resistance of a fluid to flow.

Consider `C1COCCO1` [1,4-dioxane], for which, in series [1] (303.15 K), the mass density was 1022.3 ± 0.3 kg/m3 and the viscosity was determined as 1.086 ± 0.018 mPa·s.
On to `CCCCN` [1-butanamine], for which, in series [1] (303.15 K), the mass density came out at 728.65 ± 0.81 kg/m3 and the viscosity is reported as 0.444 ± 0.009 mPa·s. Also, in series [1] (313.15 K), the mass density stood at 719.17 ± 0.82 kg/m3 and the viscosity is 0.393 ± 0.008 mPa·s.
With `CCC(C)=O` [butanone], in series [1] (303.15 K), the mass density turned out to be 799.69 ± 0.61 kg/m3 and the viscosity is on record as 0.365 ± 0.007 mPa·s.
In the same order, the values of `CCCCOC(C)=O` [butyl ethanoate] are 871.28 ± 0.48 kg/m3 and 0.644 ± 0.011 mPa·s.
The corresponding values for `Clc1ccccc1` [chlorobenzene] are 1095.49 ± 0.45 kg/m3 and 0.718 ± 0.012 mPa·s.
Turning to `CCCCNCCCC` [dibutylamine], the results for the mass density in series [1] (303.15 K) and in series [1] (313.15 K) were 752.28 ± 0.77 kg/m3 and 743.44 ± 0.78 kg/m3, respectively. Also, the viscosity is recorded as 0.758 ± 0.013 mPa·s in series [1] (303.15 K) and 0.665 ± 0.012 mPa·s in series [1] (313.15 K).
For the compound `CCCNCCC` [dipropylamine], in series [1] (303.15 K), the mass density amounted to 731.21 ± 0.8 kg/m3 and the viscosity is recorded as 0.512 ± 0.01 mPa·s. For the same compound, in series [1] (313.15 K), the mass density was 726.15 ± 3 kg/m3 and the viscosity is 0.423 ± 0.008 mPa·s.
As to `CCOC(C)=O` [ethyl acetate], in series [1] (303.15 K), the mass density was determined as 888.42 ± 0.45 kg/m3 and the viscosity was 0.399 ± 0.008 mPa·s.
Consider `O=[N+]([O-])c1ccccc1` [nitrobenzene], for which, in series [1] (303.15 K), the mass density is listed as 1193.4 ± 0.63 kg/m3 and the viscosity is on record as 1.617 ± 0.025 mPa·s.
With `CCCN` [propan-1-amine], the results for the mass density in series [1] (303.15 K) and in series [1] (313.15 K) were 706.1 ± 0.84 kg/m3 and 696.04 ± 0.86 kg/m3, respectively. The viscosity in series [1] (303.15 K) worked out at 0.353 ± 0.007 mPa·s; in series [1] (313.15 K) it was 0.313 ± 0.007 mPa·s.
Take `ClC(Cl)(Cl)Cl` [tetrachloromethane]: in series [1] (303.15 K), the mass density is listed as 1574.78 ± 1.4 kg/m3 and the viscosity was 0.852 ± 0.014 mPa·s. Also, in series [1] (313.15 K), the mass density amounted to 1555.02 ± 1.4 kg/m3 and the viscosity turned out to be 0.76 ± 0.013 mPa·s.
As to `CCCCN(CCCC)CCCC` [tributylamine], the results for the mass density in series [1] (303.15 K) and in series [1] (313.15 K) were 770.21 ± 0.74 kg/m3 and 763.11 ± 0.75 kg/m3, respectively. In addition, the viscosity in series [1] (303.15 K) was found to be 1.167 ± 0.02 mPa·s; in series [1] (313.15 K) it was 0.97 ± 0.017 mPa·s.
Regarding `ClC(Cl)Cl` [trichloromethane], the mass density in series [1] (303.15 K) was 1470.64 ± 1.2 kg/m3; in series [1] (313.15 K), 1448.43 ± 1.1 kg/m3. In addition, the viscosity came to 0.52 ± 0.009 mPa·s in series [1] (303.15 K) and 0.471 ± 0.009 mPa·s in series [1] (313.15 K).
For the compound `CCN(CC)CC` [triethylamine], in series [1] (303.15 K), the mass density is reported as 718.44 ± 0.82 kg/m3 and the viscosity is given as 0.33 ± 0.007 mPa·s.
Turning to `CCN(CC)CC` [triethylamine] + CCOC(C)=O, the mass density in series [2] (x1 = 0.0127) stood at 885.47 ± 0.59 kg/m3; in series [2] (x1 = 0.0205) it was 883.69 ± 0.59 kg/m3; in series [2] (x1 = 0.0323) it was 881 ± 0.59 kg/m3; in series [2] (x1 = 0.0407), 879.1 ± 0.59 kg/m3; in series [2] (x1 = 0.0522), 876.53 ± 0.6 kg/m3; in series [2] (x1 = 0.0608), 874.62 ± 0.6 kg/m3. Further, the mass density was determined as 872.41 ± 0.6 kg/m3 in series [2] (x1 = 0.0702), 870.58 ± 0.6 kg/m3 in series [2] (x1 = 0.0783), 867.91 ± 0.6 kg/m3 in series [2] (x1 = 0.09) and 866.05 ± 0.6 kg/m3 in series [2] (x1 = 0.0996). Further, the viscosity in series [2] (x1 = 0.0127) was determined as 0.395 ± 0.006 mPa·s; in series [2] (x1 = 0.0205), 0.389 ± 0.006 mPa·s; in series [2] (x1 = 0.0323), 0.386 ± 0.006 mPa·s; in series [2] (x1 = 0.0407), 0.382 ± 0.006 mPa·s; in series [2] (x1 = 0.0522), 0.379 ± 0.006 mPa·s; in series [2] (x1 = 0.0608), 0.376 ± 0.006 mPa·s. Moreover, the viscosity was determined as 0.374 ± 0.006 mPa·s in series [2] (x1 = 0.0702), 0.371 ± 0.006 mPa·s in series [2] (x1 = 0.0783), 0.369 ± 0.006 mPa·s in series [2] (x1 = 0.09) and 0.367 ± 0.006 mPa·s in series [2] (x1 = 0.0996).
In the case of `CCN(CC)CC` [triethylamine] + Clc1ccccc1, the mass density in series [2] (x1 = 0.0118) was found to be 1089.87 ± 0.65 kg/m3; in series [2] (x1 = 0.0193), 1086.26 ± 0.64 kg/m3; in series [2] (x1 = 0.0299), 1081.32 ± 0.63 kg/m3; in series [2] (x1 = 0.0415), 1075.87 ± 0.62 kg/m3; in series [2] (x1 = 0.0493), 1072.21 ± 0.61 kg/m3; in series [2] (x1 = 0.0595), 1067.48 ± 0.6 kg/m3. The mass density in series [2] (x1 = 0.071) was 1062.15 ± 0.59 kg/m3; in series [2] (x1 = 0.0792) it was 1058.37 ± 0.59 kg/m3; in series [2] (x1 = 0.0893) it was 1053.74 ± 0.58 kg/m3; in series [2] (x1 = 0.0994), 1049.13 ± 0.57 kg/m3. For the same compound, the viscosity in series [2] (x1 = 0.0118) was 0.709 ± 0.01 mPa·s; in series [2] (x1 = 0.0193), 0.702 ± 0.01 mPa·s; in series [2] (x1 = 0.0299), 0.694 ± 0.01 mPa·s; in series [2] (x1 = 0.0415), 0.685 ± 0.01 mPa·s; in series [2] (x1 = 0.0493), 0.677 ± 0.01 mPa·s; in series [2] (x1 = 0.0595), 0.672 ± 0.01 mPa·s. Further, the viscosity in series [2] (x1 = 0.071) is on record as 0.664 ± 0.009 mPa·s; in series [2] (x1 = 0.0792), 0.658 ± 0.009 mPa·s; in series [2] (x1 = 0.0893), 0.652 ± 0.009 mPa·s; in series [2] (x1 = 0.0994) it was 0.645 ± 0.009 mPa·s.
